Values joined by “and” are separate entries in the source; they are usually repeats but may differ in a detail not shown here. Equal entries are not always repeated.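 1) Cells in 96-well plates. 2) Compound, 48 h, 5 concentrations. 3) Linear interpolation between surrounding doses. 4) Unreached endpoint = highest concentration. Abbreviation: GI50, concentration required for 50% inhibition of growth. Definition used: TGI = concentration required for complete inhibition of growth.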
What was measured:
Assay in all cases: NCI anticancer screen, dose series, 48 h
CCRF-CEM leukemia = tested on: CCRF-CEM leukemia
K-562 leukemia = tested on: K-562 leukemia
SF-268 CNS = tested on: SF-268 CNS
UACC-62 melanoma = tested on: UACC-62 melanoma
ACHN renal = tested on: ACHN renal
KM12 colon = tested on: KM12 colon
MCF7 breast = tested on: MCF7 breast
HOP-62 NSCLC = tested on: HOP-62 NSCLC
HOP-92 NSCLC = tested on: HOP-92 NSCLC
MOLT-4 leukemia = tested on: MOLT-4 leukemia

Row | SMILES | GI50 (CCRF-CEM leukemia) [µM] | TGI (CCRF-CEM leukemia) [µM] | GI50 (K-562 leukemia) | TGI (K-562 leukemia) | GI50 (SF-268 CNS) | TGI (SF-268 CNS) | GI50 (UACC-62 melanoma) | TGI (UACC-62 melanoma) | GI50 (ACHN renal) | TGI (ACHN renal) | GI50 (KM12 colon) | TGI (KM12 colon) | GI50 (MCF7 breast) [µM] | TGI (MCF7 breast) [µM] | GI50 (HOP-62 NSCLC) [µM] | TGI (HOP-62 NSCLC) | GI50 (HOP-92 NSCLC) | TGI (HOP-92 NSCLC) | GI50 (MOLT-4 leukemia) | TGI (MOLT-4 leukemia)
1 | COC(=O)[C@]12CC[C@@H](C)[C@H](C)[C@@H]1C1=CC[C@@H]3[C@@]4(C)C(c5ncon5)=C[C@@](C)(CO)C4=CC[C@@]3(C)[C@]1(C)CC2 | 1.89 | 4.35 | 2.22 µM | 4.82 µM | 2.34 µM | 6.89 µM | 1.89 µM | 4.02 µM | 1.9 µM | 3.56 µM | 1.98 µM | 3.99 µM | 1.42 | 2.9 | 2.42 | 5.08 µM | 1.98 µM | 4.04 µM | 1.69 µM | 3.92 µM
2 | Cn1c2ccccc2c2cc(-c3ccccc3)c3c(c21)C(=O)C=CC3=O | – | > 48.5 | – | > 70.6 µM | – | 77.4 µM | – | 44.7 µM | – | 41.3 µM | – | 42.2 µM | – | 24.7 | – | > 76 µM | – | 29.9 µM | – | 21.8 µM
3 | COc1cc2c(cc1OCCCCC(=O)Nc1ccc(-c3nc4ccccc4s3)cc1)N=C[C@@H]1CCCN1C2=O | 1.2 | 3.62 | 1.75 µM | 11 µM | 2.04 µM | 5.66 µM | 1.73 µM | 3.39 µM | 3 µM | 8.53 µM | 2.94 µM | 12.4 µM | 0.732 | 3.43 | 2.45 | 6.62 µM | 1.72 µM | 4.63 µM | 1.63 µM | 5.52 µM
4 | c1ccc(Cn2cc3c(c2)-c2oncc2CC3)cc1 | 0.348 | – | 0.387 µM | > 100 µM | 1.78 µM | 38.9 µM | 0.723 µM | 97.3 µM | 7.74 µM | > 100 µM | 0.521 µM | 9.2 µM | 0.349 | > 100 | 1.28 | > 59.4 µM | 7.64 µM | > 91.4 µM | 0.394 µM | –
5 | Cc1cc[c-]cc1.Fc1c[c-]c(-c2ccccn2)c(F)c1.N#CCC[PH+](CCC#N)c1ccccc1.[Pt+2] | 3.49 | > 100 | 3.48 µM | > 100 µM | 3.19 µM | 39.5 µM | 1.79 µM | 4.43 µM | 3.33 µM | 20.9 µM | 3.39 µM | 13.2 µM | 2.68 | 17.6 | 4.93 | 31.7 µM | 2.14 µM | 8.05 µM | 2.79 µM | > 100 µM
6 | COc1cc(C2c3cc4c(cc3C3OC(=O)C2C3CO)OCO4)cc(OC)c1OC (stereo not drawn) | 0.0271 | > 100 | 0.0205 µM | > 100 µM | 0.0395 µM | > 100 µM | < 0.0136 µM | > 100 µM | 0.0344 µM | > 100 µM | 0.0132 µM | > 100 µM | < 0.01 | > 100 | 0.0339 | > 100 µM | < 0.0108 µM | 0.0869 µM | 0.0385 µM | > 100 µM
7 | O=S(=O)(NC(=S)Nc1ccccc1)c1ccc(N2N=C3c4ccccc4CC3C2c2ccc(Cl)cc2)cc1 (stereo not drawn) | 19.7 | 57.5 | 16.4 µM | 42.1 µM | 20.7 µM | 51.1 µM | 18.3 µM | 38.8 µM | 25.8 µM | 60.7 µM | 19.4 µM | 55.3 µM | 23.5 | 54.3 | 41.3 | > 100 µM | 18.1 µM | 40.2 µM | 15.9 µM | 39.3 µM
8 | C/C1=C\CC[C@@](C)(O)[C@H]2C[C@H](CC/C(C)=C/CC1)C1(CC1)C(=O)O2 | 13.5 | 39 | 13.2 µM | 29 µM | 19.3 µM | 41.2 µM | 23.9 µM | 99.8 µM | 16.8 µM | 31.3 µM | 37.2 µM | > 100 µM | 21 | 57.4 | 18.5 | 35.4 µM | 16 µM | 33.3 µM | 16.6 µM | 55.9 µM
9 | O=C1OCC2=C1C(c1cccc(F)c1)c1cc3c(cc1N2CCO)OCCO3 (stereo not drawn) | 0.237 | > 50 | 0.122 µM | > 50 µM | 0.381 µM | > 50 µM | 0.112 µM | > 50 µM | 0.386 µM | > 50 µM | 0.172 µM | > 50 µM | 0.13 | > 50 | 0.31 | > 50 µM | 2.07 µM | > 50 µM | 0.301 µM | > 50 µM
10 | CC(=O)OC1CCC2(C)C(CCC3C2CCC2(C)C(C4=CC(=O)OC4)CCC32)C1 (stereo not drawn) | 1.45 | 4.62 | 2.02 µM | 5.27 µM | 2.38 µM | 10.1 µM | 1.01 µM | 2.74 µM | 12.3 µM | 38.9 µM | 22.2 µM | > 100 µM | 9.07 | 95.7 | 14.5 | 38.3 µM | 2.93 µM | 22.6 µM | 2.6 µM | 6.3 µM
11 | COc1cc(/C=C/C(=O)c2c(C)n([O-])c3cc(C)c(C)cc3[n+]2=O)cc(OC)c1OC | 5.68 | > 100 | 18.7 µM | > 100 µM | 12.5 µM | 32.3 µM | 15.5 µM | 37.9 µM | 13.9 µM | 27.9 µM | 13.1 µM | 32.6 µM | 9.62 | 25.1 | 20.2 | 58.2 µM | 18.2 µM | 42.5 µM | 6.77 µM | > 100 µM
12 | O=C1Nc2ccccc2C12CC(c1ccccc1)=NN2 (stereo not drawn) | 5.52 | > 100 | 3.98 µM | > 100 µM | 11.9 µM | > 100 µM | 4.38 µM | > 100 µM | 6.48 µM | > 100 µM | 4.76 µM | > 100 µM | 3.72 | > 100 | 8.79 | > 100 µM | 1.65 µM | 9.43 µM | 8.41 µM | > 100 µM
13 | Cc1cc(-c2ccccc2)c(C)n1Cc1ccc(Cl)cc1 | 3.46 | > 100 | 0.84 µM | > 100 µM | 13.6 µM | > 100 µM | 3.44 µM | > 100 µM | 4.99 µM | > 100 µM | 4.26 µM | > 100 µM | 3.11 | > 100 | 6.12 | > 100 µM | 1.51 µM | 9.28 µM | 4.84 µM | 91.9 µM
14 | COc1cc(Nc2ncc3c(n2)-c2ccc(Cl)cc2C(c2c(F)cccc2OC)=NC3)ccc1C(=O)O | 0.579 | > 65.9 | 5.24 µM | > 100 µM | 9.51 µM | 92.8 µM | 3.9 µM | 30.1 µM | 2.34 µM | 55.1 µM | 0.26 µM | > 92.9 µM | 0.0469 | > 100 | 5.08 | 58.5 µM | 2.35 µM | 14.1 µM | 8.09 µM | > 75.9 µM
15 | CC1=C[C@H]2c3c(c(O)c(O)c4oc5cc(O)cc(O)c5c(=O)c34)[C@H](c3cc(O)c(O)c4oc5cc(O)cc(O)c5c(=O)c34)[C@H]2C(C)(C)C1 | 0.641 | 4.1 | 0.477 µM and 0.536 µM | 10.3 µM and > 100 µM | 2.14 µM and 2.09 µM | 11.3 µM and 11.8 µM | 1.18 µM and 1.31 µM | 2.59 µM and 3.07 µM | 1.73 µM and 1.84 µM | 5.27 µM and 10.2 µM | 1.04 µM and 1.51 µM | 3.02 µM and 3.57 µM | 0.725 | 3.88 | 1.53 | 4 µM and 6 µM | 1.94 µM and 1.1 µM | 4.73 µM and 3.33 µM | 0.764 µM and 1.92 µM | 3.31 µM and 12.9 µM
16 | O=C(Cc1ccccc1)Nc1nnc(CCSCCc2nnc(NC(=O)Cc3ccccc3)s2)s1 | > 100 | > 100 | 1.34 µM | > 100 µM | 12.3 µM | 62 µM | 19.2 µM | > 100 µM | > 100 µM | > 100 µM | 4.61 µM | > 100 µM | 32.6 | > 100 | 3.86 | 19.6 µM | 4.5 µM | 25.8 µM | 23.8 µM | > 100 µM
17 | O=C1CC(c2ccccc2)Cc2nc3ccc(Cl)cc3cc21 (stereo not drawn) | 0.0395 | > 100 | 0.0859 µM | > 100 µM | 6.04 µM | > 100 µM | 0.15 µM | 35.5 µM | 0.261 µM | > 100 µM | 0.342 µM | 22.7 µM | 2.42 | > 100 | 0.459 | > 100 µM | 1.51 µM | 42.5 µM | 0.0644 µM | > 100 µM
18 | Cc1cc(N(CCCNc2ccnc3cc(Cl)ccc23)Cc2cccs2)nc(Cl)n1 | 5.57 | > 100 | 0.743 µM | 12.2 µM | 10.5 µM | 29.7 µM | 5.15 µM | 21 µM | 5.12 µM | 19.7 µM | 4.16 µM | 17 µM | 3.06 | 17.1 | 11.8 | 29.6 µM | 2.63 µM | 20 µM | 2.72 µM | 22.9 µM
19 | C[C@@H]1CN(Cc2ccc(/C=C/c3n[nH]c4ccc5nc(-c6cn[nH]c6C(F)(F)F)c6c(c5c34)CCCC6)cc2)C[C@H](C)O1 | 0.718 | 34.2 | 2.81 µM | 24.7 µM | 4.21 µM | 19.1 µM | 5.73 µM | 19.3 µM | 2.57 µM | 13.7 µM | 2.03 µM | 14.3 µM | 1.53 | 14.9 | 4.6 | 30.8 µM | 3.12 µM | 17.9 µM | 2.6 µM | 23.2 µM
20 | Cc1sc2nc(-c3ccccn3)c(/C=N/N=C(N)N)n2c1C | 6.02 | 19 | > 51.5 µM | > 100 µM | 8.15 µM | 29.8 µM | 4.19 µM | 10.4 µM | 7.29 µM | 14.8 µM | 7.85 µM | 15.6 µM | 6.54 | 34 | 8.06 | 16.9 µM | 7.55 µM | 15.8 µM | 10.2 µM | > 27.5 µM
